Measured values taken from patent publication US9125947B2, “Phenylethanoic acid, phenylpropanoic acid and phenylpropenoic acid conjugates and prodrugs of hydrocodone, method of making and use thereof” (KemPharm, Inc., priority 2009, dated 2015).

Tests used:
[1] = Water solubility / ability to be dosed in solution (Example 4)
[2] = Chemical stability: hydrolysis in 5% NaHCO3; assay type: physicochemical; settings: 5% NaHCO3, one hour; for initial amount of conjugate hydrolyzed, 5% NaHCO3 ambient: ambient temperature (~20° C.); for initial amount of conjugate hydrolyzed, 5% NaHCO3 100° C.: oil bath at 100° C.
[3] = Chemical stability: hydrolysis to hydrocodone in 1 N hydrochloric acid; settings: 1 hour; for initial amount of conjugate hydrolyzed, 1N HCl ambient: ambient temperature (~20° C.); for initial amount of conjugate hydrolyzed, 1N HCl 100° C.: oil bath at 100° C.
[4] = Intranasal PK in rats, Ibu-HC vs Adipate-HC (Example 3); settings: equivalent to 2 mg/kg freebase hydrocodone
[5] = Intranasal PK in rats, Ibu-HC vs Hydrocodone BT (Example 6); assay type: in vivo
Excerpt: The intranasal profiles of Ibu-HC were compared to the unconjugated drug Hydrocodone•BT by administering to rats intranasally and measuring the plasma concentration of hydrocodone or hydromorphone over time.

[6] = Oral PK in rats, Ibu-HC and Cinnamate-HC vs Hydrocodone BT (Example 5)

Row | SMILES | water solubility [1] | initial amount of conjugate hydrolyzed, 5% NaHCO3 ambient [2] [%] | initial amount of conjugate hydrolyzed, 5% NaHCO3 100° C. [2] [%] | initial amount of conjugate hydrolyzed, 1N HCl ambient [3] [%] | initial amount of conjugate hydrolyzed, 1N HCl 100° C. [3] [%] | also measured
1 | COc1ccc2c3c1OC1C(OC(=O)CCCCC(=O)O)=CC[C@H]4[C@@H](C2)N(C)CC[C@]314 (stereo partly shown) [Adipate-HC, reference compound] | water-soluble | 3 | 100 | 13 | 100 | hydromorphone AUC, higher than Ibu-HC ([4]; hydromorphone in plasma, relative to Ibu-HC): approximately 940%; hydrocodone AUC, higher than Ibu-HC ([4]; released hydrocodone in plasma, relative to Ibu-HC): approximately 170%
2 | COc1ccc2c3c1OC1C(OC(=O)COCC(=O)O)=CC[C@H]4[C@@H](C2)N(C)CC[C@]314 (stereo partly shown) [Diglycolate-HC] | water-soluble |  |  |  |  | 
3 | COc1ccc2c3c1O[C@H]1C(=O)CC[C@H]4[C@@H](C2)N(C)CC[C@]314.O=C(O)C(O)C(O)C(=O)O [Hydrocodone•BT, hydrocodone bitartrate, reference compound] |  |  |  |  |  | hydrocodone AUC, higher than Ibu-HC ([5]; hydrocodone in plasma, relative to Ibu-HC): approximately 300%
4 | COc1ccc2c3c1OC1C(OC(=O)C(C)c4ccc(CC(C)C)cc4)=CCC4C(C2)N(C)CCC314 (stereo not shown) [Ibu-HC, ibuprofen-hydrocodone] | very low water solubility | 0 | 22 |  |  | hydrocodone and hydromorphone plasma concentrations compared with unconjugated Hydrocodone•BT ([6]; equivalent to 2 mg/kg freebase hydrocodone): similar; AUC and Cmax values (hydrocodone and hydromorphone) compared with Hydrocodone•BT ([6]; same dose based on hydrocodone freebase (2 mg/kg)): within the range of bioequivalence; hydrocodone plasma concentrations compared with Hydrocodone•BT [5]: significantly lower; plasma concentration of hydromorphone compared with Hydrocodone•BT [5]: very low; hydrocodone plasma concentrations compared with Adipate-HC [4]: significantly lower; plasma concentration of hydromorphone compared with Adipate-HC [4]: very low
5 | COc1ccc2cc(C(C)C(=O)OC3=CCC4C5Cc6ccc(OC)c7c6C4(CCN5C)C3O7)ccc2c1 (stereo not shown) [Naproxen-HC, naproxen-hydrocodone] |  | 0 | 8 | 0 | 33 | 
